Test results as given in patent US20050107465A1, “Composition for treating inflammatory bowel disease” (priority 2003, published 2005).
Entries after “also recorded” stand apart in the source; their conditions may differ.

Test system: MAdCAM-1 expression in murine colon microvessel endothelial cells
Assay: Western blot assay for TNF-α induced MAdCAM-1 expression in murine colon microvessel endothelial cells
Assay type: cell-based
Conditions: EC monolayer pre-treated with test agent, then TNF-α 20 ng/ml for 24 hours, western blot densitometry (FIG. 2)
Protocol: A line of murine colon microvessel endothelial cells was developed for use as an in vitro model of colon inflammatory adhesion molecule expression in IBD. Immortomouse mice were used as tissue sources for these studies. Colon segments were sterilely removed and treated with collagenase (0.2%, 45 min) and cultured in d-valine MEM with IFN-g (10 U/ml) with 2% FCS and non-essential amino acids and vitamins. These cells were cultured on gelatin and were maintained at 37 C. for 24 hours prior to exposure to treatment protocols. In treatments, cells cultured on 24 well plates were incubated in either medium, or medium containing antioxidant or antioxidant admixture ± vitamin E TPGS for 24-48 hour prior to the administration of inflammatory cytokine (TNF-α, 20 ng/ml). At 24 hours combined treatments, monolayers were evaluated for MAdCAM-1 by standard western blotting.
EC cells developed as above were cultured in 2% fetal calf serum, with 50 U/ml interferon-gamma, d-valine supplemented MEM, 1% penicillin/streptomycin and 1 % non-essential amino acids using tissue culture were pre-coated with 1 % gelatin. Adhesion molecule expression was measured in these cells by switching cells to medium without interferon, culturing for 48 hours and then pre-treating cells with test agents for 24 hours prior to exposure to TNF-α for an additional 24 hours. MAdCAM-1 expression was measured using standard western blotting procedures described above. One hundred μg of protein was loaded per lane in non-denaturing sample buffer (w/o mercaptoethanol) and electrophoresed, and subsequently transferred to nitrocellulose. After blocking (5% milk, 2 h), blots were incubated in MAdCAM-1 antibody (10 ug/ml) for 12 hours and reacted by enhanced chemiluminescence (ECL). Gels were analyzed by densitometric analysis by scanning x-ray replicas of the exposed blots.
A murine colon microvessel endothelial cell line (EC monolayer) was developed as described above. Cytokine induced MAdCAM-1 expression in these cells was determined via Western Blot assay described above. An initial experiment evaluated the ability of gamma-tocopherol alone or formulated with vitamin E TPGS to block cytokine induction of MAdCAM-1 in this cell line is shown in FIG. 2.

vitamin E TPGS
effect on cytokine induced MAdCAM-1 expression (in words): relatively small effect; also recorded: only a slight decrease
effect on cytokine induced MAdCAM-1 expression (in words) (listed as vitamin E TGPS): relatively minor effect

COC1=C(OC)C(=O)C(C/C=C(\C)CC/C=C(\C)CC/C=C(\C)CC/C=C(\C)CC/C=C(\C)CC/C=C(\C)CC/C=C(\C)CC/C=C(\C)CC/C=C(\C)CCC=C(C)C)=C(C)C1=O [Coenzyme Q10]
effect on cytokine induced MAdCAM-1 expression (in words): less beneficial than alpha-tocopherol therapy
effect on cytokine induced MAdCAM-1 expression (in words) (listed as coenzyme Q10): relatively minor effect

Cc1c(C)c2c(c(C)c1O)CC[C@@](C)(CCC[C@H](C)CCC[C@H](C)CCCC(C)C)O2 [alpha-tocopherol]
effect on cytokine induced MAdCAM-1 expression (in words): relatively minor effect; also recorded: significantly less effective than gamma-tocopherol alone

Cc1c(O)cc2c(c1C)O[C@](C)(CCC[C@H](C)CCC[C@H](C)CCCC(C)C)CC2 [gamma-tocopherol]
decrease in MAdCAM-1 expression: at least 50%
effect on cytokine induced MAdCAM-1 expression (in words): significantly decrease
